According to patent publication US20200179245A1, “HIGH EFFICIENCY SUNSCREEN COMPOSITION” (Deckner Consulting Services, LLC, priority 2015, published 2020):
Like-named read-outs stand apart in the source and are kept apart here.

Columns and labels:
[1] = In vitro open chamber Franz diffusion cell penetration test; type: in vitro ADME; conditions: Strat-M membrane, 37° C.
Procedure: The Test sample was Barsoleil OMC-60 with a purity of 61.95%. The control sample was Octyl Methoxycinnamate with a purity of 100%. The samples were applied to a Strat-M membrane for testing using 5 skin preparations. A 6-cell semiautomatic Franz cell setup was used for all diffusion experiments. (Franz cell Diffusion is a standard in vitro method used for penetration). Circulating water baths were set to 37° C.±0.5° C. Strat-M synthetic membrane was used in place of cadaver skin. The Strat-M® membrane was placed between the donor and receptor compartments of the Franz cells. The available open area between donor and receptor compartments measured 0.635 cm2. The compartments were clamped together, ensuring that the shiny side of the membrane was facing the donor compartment. 1 mL of the test and control samples were used and placed in the donor chamber. The receptor compartment was filled with 0.9% saline:methanol (50:50) buffer. When the receptor solution reached 37° C., the sample was added to the donor compartment. An aliquot of each sample was removed from the receptor compartment at times T=0, 2, 4, 6 and 8 hours.
The dose of the receptor phase was analyzed by HPLC, and the amount of release per unit area (μg/cm2) was plotted against the square of time and the slope was the transdermal release rate. (See FIG. 3, control sample 20, test sample 30).

[2] = human skin, cited from earlier work

Row | SMILES | Cumulative C ([1]; penetration time 0 hrs) | Cumulative C ([1]; penetration time 2 hrs) | Cumulative C ([1]; penetration time 4 hrs) | Cumulative C ([1]; penetration time 6 hrs) | Cumulative C ([1]; penetration time 8 hrs) | in vitro skin penetration rate / skin accumulation ([2]; oil in water emulsion) | in vitro skin penetration rate / skin accumulation ([2]; water in oil emulsion)
1 | CCCCC(CC)COC(=O)C=Cc1ccc(OC)cc1 (stereo not shown) [OMC, Octyl Methoxycinnamate] | 0 μg/cm^2 | 16.7 μg/cm^2 | 55.2 μg/cm^2 | 96.5 μg/cm^2 | 144.9 μg/cm^2 |  | 
2 | CCCCC(CC)COC(=O)/C=C/c1ccc(OC)cc1 (stereo not shown) [OMC-free] |  |  |  |  |  | 127.8 μg/cm^2 | 172.1±12.9 μg/cm^2
